Residues, ends and D or L forms follow the SMILES beside them.
Organism: Rattus norvegicus
Experiment: Agonist activity relative to angiotensin II in uterine contraction was estimated in rat using rat oxytocic assay

| SMILES | Relative activity |
| --- | --- |
| CC(C)[C@H](NC(=O)[C@H](CCCN=C(N)N)NC(=O)[C@@H](N)CC(=O)O)C(=O)N[C@@H](Cc1ccc(O)cc1)C(=O)N[C@H](C(=O)N[C@@H](Cc1c[nH]cn1)C(=O)N1CCC[C@H]1C(=O)N[C@@H](Cc1ccccc1)C(=O)O)C(C(F)(F)F)C(F)(F)F (HELM PEPTIDE1{D.R.V.Y.[O=C([C@@H](N[*:1])C(C(F)(F)F)C(F)(F)F)[*:2]].H.P.F}$$$$V2.0) | 133% |
| CC(C)[C@H](NC(=O)[C@H](CCCN=C(N)N)NC(=O)[C@@H](N)CC(=O)O)C(=O)N[C@@H](Cc1ccc(O)cc1)C(=O)N[C@@H](C(=O)N[C@@H](Cc1c[nH]cn1)C(=O)N1CCC[C@H]1C(=O)N[C@@H](Cc1ccccc1)C(=O)O)C(C(F)(F)F)C(F)(F)F (HELM PEPTIDE1{D.R.V.Y.[O=C([C@H](N[*:1])C(C(F)(F)F)C(F)(F)F)[*:2]].H.P.F}$$$$V2.0) | <1% |

Reference: ChEMBL document CHEMBL1121692, “Synthesis of fluorine-containing peptides. Analogues of angiotensin II containing hexafluorovaline” (J Med Chem, 1981)
